Measurements published in PubChem BioAssay AID1963983 (Molecular Pharmacology Branch, DTP, NCI, 2024).
Blank lines part the entries; values can stand above or below the molecule they belong to.

Tested on: 186277-243-T-J2-PDC multi-cell spheroid viability
Test: Anticancer human tumor 186277-243-T-J2-PDC patient-derived colon adenocarcinoma cell line growth inhibition [PI3K]
Details: for IC50: curve of first compound; for viability, T/C: stronger effect = lower value
How it was run: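 Spheroid viability read-out. Co-cultures contained the tumor line plus HUVEC and human MSCs. Each agent was paired with a PI3K inhibitor (inavolisib, alpelisib, duvelisib, copanlisib) across half-log dilutions starting at clinical Cmax, or at 10 microM when Cmax was unknown.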

[1] = second compound 0.0316 µM, first compound 0.0316 µM
[2] = second compound 0.0316 µM, first compound 0.1 µM
[3] = second compound 0.1 µM, first compound 0.0316 µM
[4] = second compound 0.1 µM, first compound 0.1 µM
[5] = second compound 0.316 µM, first compound 0.0316 µM
[6] = second compound 0.316 µM, first compound 0.1 µM
[7] = second compound 1 µM, first compound 0.0316 µM
[8] = second compound 1 µM, first compound 0.1 µM
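Further: spheroids exposed to compounds for seven days before viability reading.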
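Wherever viability, T/C is given: 100% = DMSO vehicle control viability.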

IC50 (second compound 0.00316 µM): > 100 nM
IC50 (second compound 0.01 µM): > 100 nM
IC50 (second compound 0.0316 µM): 57.4 nM
IC50 (second compound 0.1 µM): < 0.316 nM
IC50 (second compound 0.316 µM): < 0.316 nM
IC50 (second compound 1 µM): < 0.316 nM
Structure (SMILES): CC(=O)c1c(C)c2cnc(Nc3ccc(N4CCNCC4)cn3)nc2n(C2CCCC2)c1=O + COc1c(OCCCN2CCOCC2)ccc2c3n(c(=NC(=O)c4cnc(N)nc4)nc12)CCN3
viability, T/C (second compound 0.00316 µM, first compound 0.000316 µM): 101%
viability, T/C (second compound 0.00316 µM, first compound 0.001 µM): 107%
viability, T/C (second compound 0.00316 µM, first compound 0.00316 µM): 97.3%
viability, T/C (second compound 0.00316 µM, first compound 0.01 µM): 94.9%
viability, T/C (second compound 0.00316 µM, first compound 0.0316 µM): 112%
viability, T/C (second compound 0.00316 µM, first compound 0.1 µM): 113%
viability, T/C (second compound 0.01 µM, first compound 0.000316 µM): 110%
viability, T/C (second compound 0.01 µM, first compound 0.001 µM): 102%
viability, T/C (second compound 0.01 µM, first compound 0.00316 µM): 87.9%
viability, T/C (second compound 0.01 µM, first compound 0.01 µM): 91.7%
viability, T/C (second compound 0.01 µM, first compound 0.0316 µM): 117%
viability, T/C (second compound 0.01 µM, first compound 0.1 µM): 99.5%
viability, T/C (second compound 0.0316 µM, first compound 0.000316 µM): 64.2%
viability, T/C (second compound 0.0316 µM, first compound 0.001 µM): 67.2%
viability, T/C (second compound 0.0316 µM, first compound 0.00316 µM): 68.8%
viability, T/C (second compound 0.0316 µM, first compound 0.01 µM): 58.9%
viability, T/C [1]: 51.3%
viability, T/C [2]: 47.2%
viability, T/C (second compound 0.1 µM, first compound 0.000316 µM): 15.6%
viability, T/C (second compound 0.1 µM, first compound 0.001 µM): 14.4%
viability, T/C (second compound 0.1 µM, first compound 0.00316 µM): 13.9%
viability, T/C (second compound 0.1 µM, first compound 0.01 µM): 17.4%
viability, T/C [3]: 11.6%
viability, T/C [4]: 13.2%
viability, T/C (second compound 0.316 µM, first compound 0.000316 µM): 3.72%
viability, T/C (second compound 0.316 µM, first compound 0.001 µM): 3.94%
viability, T/C (second compound 0.316 µM, first compound 0.00316 µM): 6.08%
viability, T/C (second compound 0.316 µM, first compound 0.01 µM): 4.53%
viability, T/C [5]: 4.8%
viability, T/C [6]: 5.23%
viability, T/C (second compound 1 µM, first compound 0.000316 µM): 3.84%
viability, T/C (second compound 1 µM, first compound 0.001 µM): 2.22%
viability, T/C (second compound 1 µM, first compound 0.00316 µM): 3.44%
viability, T/C (second compound 1 µM, first compound 0.01 µM): 3.39%
viability, T/C [7]: 2.44%
viability, T/C [8]: 1.63%

IC50 (second compound 0.0316 µM): 893 nM
IC50 (second compound 0.1 µM): 603 nM
IC50 (second compound 0.316 µM): 544 nM
IC50 (second compound 1 µM): 262 nM
IC50 (second compound 3.16 µM): 59.7 nM
IC50 (second compound 10 µM): < 31.6 nM
Structure (SMILES): CC(C)NCC(C(=O)N1CCN(c2ncnc3c2C(C)CC3O)CC1)c1ccc(Cl)cc1 (centres undefined) + Cc1nc(NC(=O)N2CCCC2C(N)=O)sc1-c1ccnc(C(C)(C)C(F)(F)F)c1
viability, T/C [1]: 115%
viability, T/C [2]: 93%
viability, T/C (second compound 0.0316 µM, first compound 0.316 µM): 59%
viability, T/C (second compound 0.0316 µM, first compound 1 µM): 54.1%
viability, T/C (second compound 0.0316 µM, first compound 3.16 µM): 31.6%
viability, T/C (second compound 0.0316 µM, first compound 10 µM): 22.5%
viability, T/C [3]: 90.3%
viability, T/C [4]: 92.4%
viability, T/C (second compound 0.1 µM, first compound 0.316 µM): 58.6%
viability, T/C (second compound 0.1 µM, first compound 1 µM): 43.9%
viability, T/C (second compound 0.1 µM, first compound 3.16 µM): 23.5%
viability, T/C (second compound 0.1 µM, first compound 10 µM): 23.9%
viability, T/C [5]: 94.5%
viability, T/C [6]: 80.2%
viability, T/C (second compound 0.316 µM, first compound 0.316 µM): 64%
viability, T/C (second compound 0.316 µM, first compound 1 µM): 36.5%
viability, T/C (second compound 0.316 µM, first compound 3.16 µM): 18%
viability, T/C (second compound 0.316 µM, first compound 10 µM): 14.3%
viability, T/C [7]: 92.5%
viability, T/C [8]: 74.8%
viability, T/C (second compound 1 µM, first compound 0.316 µM): 45.4%
viability, T/C (second compound 1 µM, first compound 1 µM): 24.7%
viability, T/C (second compound 1 µM, first compound 3.16 µM): 21.4%
viability, T/C (second compound 1 µM, first compound 10 µM): 16.3%
viability, T/C (second compound 3.16 µM, first compound 0.0316 µM): 56.3%
viability, T/C (second compound 3.16 µM, first compound 0.1 µM): 47%
viability, T/C (second compound 3.16 µM, first compound 0.316 µM): 25.3%
viability, T/C (second compound 3.16 µM, first compound 1 µM): 20.3%
viability, T/C (second compound 3.16 µM, first compound 3.16 µM): 10%
viability, T/C (second compound 3.16 µM, first compound 10 µM): 5.7%
viability, T/C (second compound 10 µM, first compound 0.0316 µM): 14.2%
viability, T/C (second compound 10 µM, first compound 0.1 µM): 13.1%
viability, T/C (second compound 10 µM, first compound 0.316 µM): 7.49%
viability, T/C (second compound 10 µM, first compound 1 µM): 9.25%
viability, T/C (second compound 10 µM, first compound 3.16 µM): 5.71%
viability, T/C (second compound 10 µM, first compound 10 µM): 3.29%
